We go through 1 substance from US20100197765A1, “METHOD FOR PROMOTING THE EXPRESSION OF P53, AND P53 EXPRESSION PROMOTER FOR USE IN THE METHOD” (THE UNIVERSITY OF TOKUSHIMA, priority 2007, published 2010).

This data set concerns HCT116 cell strain. In words: tumor volume of si-vegf #1 HCT116 cell strain xenografted to nude mice. As to conditions: si-vegf #1 cells vs si-Control cells, subcutaneous, n=5. The class given is in vivo. From the text:
With regard to cells expressing siRNA against vegf, the effect thereof on the tumorigenicity in vivo was examined. Vegf siRNA #1 vectors expressing the above-described siRNA #1 were transfected into a HCT116 cell strain (wild-type p53) derived from human large bowel cancer, and the transfected cells were selected with an antibiotic blasticidin. The thus-obtained cell clone hereinafter is referred to as a si-vegf #1 cell strain. As a control, pcDNA6.2-GW/EmGFP-miR vectors (Invitrogen) to which a double-stranded oligonucleotide with a sequence (SEQ ID NO. 46: 5′-[…]-3′) having no homology to known vertebrate genes had been inserted were used (control siRNA vectors) as in the above. The […] cell strain was transfected with these control siRNA vectors in the same manner as in the above, and the transfected cells were selected with the antibiotic. The thus-obtained cell clone hereinafter is referred to as a si-Control cell strain. Then, the si-vegf #1 cell strain and the si-Control cell strain respectively were xenografted subcutaneously to femoral regions of nude mice, and the volume of the formed tumor was measured after the predetermined time (each n=5) in the same manner as in Example C2.

Consider “siRNA #1: siRNA against vegf mRNA, SEQ ID NO 3/4, antisense complementary to bases 1062-1082 in SEQ ID NO. 1; expressed from pcDNA6.2-GW/EmGFP-miR vector (sense GCAUUGGACUUGCCUUGCUNN; antisense AGCAAGGCAAGGCUCCAAUGCNN)”, for which the “tumor formation and tumor growth” value is on record as “significant suppression”.
